Measured values from US20070219220A1, “Pyrazolopyrimidinethione Derivatives, Salts and Solvates Thereof, Preparation Methods and Use Thereof” (priority 2003, published 2007).
Marks after values point to notes of the source that are not given here.

Tests used:
rats with testis removed = assay: Penile erection caused by stimulating electric current in rats with testes removed (Example 7); type: in vivo, wistar rats; details: for Latent period / Swelling time: stimulation 35 min after administration
Source text: Methods: Forty healthy adult male wistar rats were used in the study, with the body weight ranging from 230 g to 250 g. The rats were anesthetized with sodium pentobarbital, and their testes were squeezed into the scrotum. After sterilization, the scrotum was dissected with an operation knife. The testes and epididymis were taken out respectively and then ligated. The wound were sutured and 100,000 unit of penicillin was administrated to each rat for three consecutive days. After breeding for one week, the rats were used for the tests. The animals may be used repeatedly and the interval between any two of the tests was one week. […] Sildenafil at the dose of 50 mg/kg was used as the positive control. The control group is (1% sodium carboxymethyl cellulose). In 35 min after the administration, the penis of the rats was stimulated with SEN-3201 stimulator (NIHON KOHDEN, Japan), with the following parameters: the stimulating voltage of 10V, the time interval (T1) of 250 msec, the deferment time (T2) of 10 msec, the duration (T3) of 500 μsec, and the stimulation rank (n) of 25. At the same time, the latent period (sec) of the penile erection and the penile swelling time (min) were recorded with a three-channel stop-watch.

mice with testis removed = assay: Sexual function (back climbing) of testis-removed mice (Example 10); type: in vivo, KM mice; details: for Incidence: back climbing within 2 hours after administration; for Times of back climbing / Number of the animals who performed back climbing: within 2 hours after administration; for Number of the animals who performed back climbing: 10 male mice
Source text: Methods: Forty healthy KM male mice with the body weight ranging from 28-32 g and forty healthy KM female mice with body weight ranging from 24-28 g were used. Each male mouse was anesthetized with sodium pentobarbital, and the testes were squeezed into the scrotum. After sterilization, the scrotum was dissected with an operating knife. The testes and epididymis were respectively taken out, and then ligated. The wound were sutured and each of the mice was administrated with 100,000 units of penicillin for three consecutive days. After being bred for one week, the mice were used for the tests. The animals may be employed repeatedly and the interval between any two tests was 72 hours. To the mice, the following compounds were orally administered: compound (1), compound (2), compound (3), and compound (4), each at the dose of 80 mg/kg and 40 mg/kg, respectively. The positive control agent was Sildenafil, at the dose of 80 mg/kg. The control group was given with 1% of sodium carboxymethyl cellulose. At 30 min after the administration, the male mice who had taken the above agents were put into the cages of female mice, with the male-to-female rate of 1:1. There were three males and three females in each cage. The times of back climbing on the female mice performed by the male mice, and the percentage of occurrence were observed within 2 hours after the administration.

anesthetized dogs = assay: Blood pressure, heart rate and respiration of anesthetized dogs (Example 11); type: in vivo; details: oral 40 mg/kg; in 3 hours after administration
Experimental: Methods: eight healthy male dogs with the body weight ranging from 12-15 kg were used. The dogs were anesthetized with 30 mg/kg of sodium pentobarbital. The femoral artery was dissected and inserted with a blood pressure transducer to record the blood pressure. The limbs were pierced with electrodes for recording the electrocardiogram. The respiration belt was wrapped around their chest and the respiration rate was recorded. The apparatus used was RM-6000 Polygraph system (NIHON KOHDEN, Japan). The changes in the arterial blood pressure, the heart rate, and the respiration were observed after the test compound was introduced into the stomach of the anesthetized dogs via 14# catheter.

anesthetized rats = assay: Blood pressure and heart rate of anesthetized rats (Example 12); type: in vivo, wistar rats
Experimental: Forty male wistar rats with the body weight ranging from 220-240 g were used in the study. Pharmaceuticals: compound (2) and Sildenafil, which were ground and then suspended with 1% of sodium carboxymethyl cellulose. Apparatus: RM-6000 eight-graph system (NIHON KOHDEN, Japan). The doses for administration and the division of the groups: solvent control group (abbreviated as the control group), 20 mg/kg of compound (2), 40 mg/kg of compound (2), 80 mg/kg of compound (2), and 50 mg/kg of Sildenafil. The administration route is through dodecadactylon. Methods: the male wistar rats were taken out and anesthetized with 35 mg/kg of sodium pentobarbital by injecting into the abdominal cavity, on the basis of their body weight. The rats were fixed on the operation table and were performed with the dissection operation of right carotid artery. The catheter with an external diameter of 1 mm was inserted into the right carotid artery. The blood pressure was measured and the electrodes positioned on the skin of the four limbs were used to record the electrocardiogram limb lead II. The catheter with an external diameter of 2 mm was inserted into the dodecadactylon via incision of the epigastric region, for the administration of the pharmaceuticals. RM-6000 eight-graph system (NIHON KOHDEN, Japan) was employed to record. Observation time: the value before administration, the values at 15, 30, 60, 120 and 180 min after the administration.

[1] = 20 mg/kg through dodecadactylon, at 15 min after administration
[2] = 20 mg/kg through dodecadactylon, at 30 min after administration
[3] = 20 mg/kg through dodecadactylon, at 60 min after administration
[4] = 20 mg/kg through dodecadactylon, at 120 min after administration
[5] = 20 mg/kg through dodecadactylon, value before administration
[6] = 40 mg/kg through dodecadactylon, at 15 min after administration
[7] = 40 mg/kg through dodecadactylon, at 30 min after administration
[8] = 40 mg/kg through dodecadactylon, at 60 min after administration
[9] = 40 mg/kg through dodecadactylon, at 120 min after administration
[10] = 40 mg/kg through dodecadactylon, value before administration
[11] = 80 mg/kg through dodecadactylon, at 15 min after administration
[12] = 80 mg/kg through dodecadactylon, at 30 min after administration
[13] = 80 mg/kg through dodecadactylon, at 60 min after administration
[14] = 80 mg/kg through dodecadactylon, at 120 min after administration
[15] = 80 mg/kg through dodecadactylon, value before administration
[16] = 20, 40 and 80 mg/kg through dodecadactylon

## CCCc1nn(C)c2c(=S)[nH]c(-c3cc(S(=O)(=O)N4C[C@@H](C)N[C@@H](C)C4)ccc3OCC)nc12 [Compound (2), 5-[2-ethoxy-5-(cis-3,5-dimethylpiperazin-1-sulfonyl)phenyl]-1-methyl-3-n-propyl-1,6-dihydro-7H-pyrazolo[4,3-d]pyrimidin-7-thione]
Rats with testis removed; compared with control
  penile swelling time (in words): lengthened
Rats with testis removed; compared with control, P<0.001
  latent period of the penile erection (in words): evidently shortened
Rats with testis removed; compared with sildenafil 50 mg/kg
  penile swelling time compared with positive control sildenafil (in words): more evident
Rats with testis removed; oral 10 mg/kg
  Latent period: 29.5 ± 4.2 s
  Swelling time: 1069.8 ± 621.5 s
Rats with testis removed; oral 20 mg/kg
  Latent period: 29.5 ± 4.2 s
  Swelling time: 1480.5 ± 469.7 s
Rats with testis removed; oral 40 mg/kg
  Latent period: 30.1 ± 3.9 s
  Swelling time: 2675.5 ± 769.2 s
Mice with testis removed; oral 40 mg/kg
  Incidence: 60%
  Number of the animals who performed back climbing: 6*
Mice with testis removed; oral 40 mg/kg, 40 mg/kg
  Times of back climbing: 11*
Mice with testis removed; oral 40 mg/kg, listed as compound (2), 40 mg/kg
  Times of back climbing: 11
Mice with testis removed; oral 80 mg/kg
  Incidence: 80%
  Number of the animals who performed back climbing: 8**
Mice with testis removed; oral 80 mg/kg, 80 mg/kg
  Times of back climbing: 20**
Mice with testis removed; oral 80 mg/kg, listed as compound (2), 80 mg/kg
  Times of back climbing: 20
Anesthetized dogs
  arterial blood pressure (systolic and diastolic), heart rate and respiration (frequency and depth), in words: did not experience an evident change
Anesthetized rats; [1]
  Heart rate: 440 ± 29.7 times/min
  Systolic pressure: 132 ± 29.5 mmHg
  diastolic pressure: 108 ± 29.7 mmHg
Anesthetized rats; [2]
  Heart rate: 440 ± 29.6 times/min
  Systolic pressure: 134 ± 29.6 mmHg
  diastolic pressure: 104 ± 29.6 mmHg
Anesthetized rats; [3]
  Heart rate: 436 ± 22.9 times/min
  Systolic pressure: 128 ± 22.9 mmHg
  diastolic pressure: 101 ± 22.9 mmHg
Anesthetized rats; [4]
  Heart rate: 428 ± 22.6 times/min
  Systolic pressure: 127 ± 22.6 mmHg
  diastolic pressure: 102 ± 22.6 mmHg
Anesthetized rats; 20 mg/kg through dodecadactylon, before administration
  Heart rate: 445 ± 25.1 times/min
Anesthetized rats; [5]
  Systolic pressure: 134 ± 7.2 mmHg
  diastolic pressure: 109 ± 14.1 mmHg
Anesthetized rats; [6]
  Heart rate: 422 ± 29.7 times/min
  Systolic pressure: 130 ± 29.7 mmHg
  diastolic pressure: 109 ± 29.7 mmHg
Anesthetized rats; [7]
  Heart rate: 427 ± 29.6 times/min
  Systolic pressure: 134 ± 29.6 mmHg
  diastolic pressure: 109 ± 29.6 mmHg
Anesthetized rats; [8]
  Heart rate: 425 ± 22.9 times/min
  Systolic pressure: 122 ± 22.9 mmHg
  diastolic pressure: 109 ± 22.9 mmHg
Anesthetized rats; [9]
  Heart rate: 424 ± 22.6 times/min
  Systolic pressure: 133 ± 22.6 mmHg
  diastolic pressure: 112 ± 22.6 mmHg
Anesthetized rats; 40 mg/kg through dodecadactylon, before administration
  Heart rate: 429 ± 42.8 times/min
Anesthetized rats; [10]
  Systolic pressure: 129 ± 13.6 mmHg
  diastolic pressure: 109 ± 14.4 mmHg
Anesthetized rats; [11]
  Heart rate: 439 ± 29.7 times/min
  Systolic pressure: 121 ± 29.7 mmHg
  diastolic pressure: 102 ± 29.7 mmHg
Anesthetized rats; [12]
  Heart rate: 442 ± 29.6 times/min
  Systolic pressure: 123 ± 29.6 mmHg
  diastolic pressure: 97 ± 29.6 mmHg
Anesthetized rats; [13]
  Heart rate: 436 ± 22.8 times/min
  Systolic pressure: 121 ± 22.9 mmHg
  diastolic pressure: 96 ± 22.9 mmHg
Anesthetized rats; [14]
  Heart rate: 438 ± 22.6 times/min
  Systolic pressure: 119 ± 22.6 mmHg
  diastolic pressure: 94 ± 22.6 mmHg
Anesthetized rats; 80 mg/kg through dodecadactylon, before administration
  Heart rate: 439 ± 22.6 times/min
Anesthetized rats; [15]
  Systolic pressure: 126 ± 12.1 mmHg
  diastolic pressure: 102 ± 12.0 mmHg
Anesthetized rats; [16]
  effect on the heart rate (in words): did not exhibit an evident effect
  effect on the systolic pressure and diastolic pressure (in words): did not exhibit an evident effect
